Columns and labels:
Experiment in all cases: Test B pre-/postemergence plant response
Assay type in all cases: in vivo
[1] = test system: large crabgrass (Digitaria sanguinalis); details: for Crabgrass, Large plant response rating (0 to 100 scale): 62 g ai/ha, 0 is no effect, 13 to 15 days
In short: (§1)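 Seeds were sown in loam soil/sand blend and treated preemergence with compound in non-phytotoxic solvent mixture containing surfactant; postemergence sprays, same formulation, went onto plants 2 to 18 cm (1- to 4-leaf stage) in peat-based planting medium. Greenhouse 13 to 15 days, then visual rating versus untreated controls, 0 (no effect) to 100 (complete control).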

[2] = test system: johnsongrass (Sorghum halepense); details: for Johnsongrass plant response rating (0 to 100 scale): 62 g ai/ha, 0 is no effect, 13 to 15 days
In short: as §1

[3] = test system: morningglory (Ipomoea coccinea); details: for Morningglory plant response rating (0 to 100 scale): 62 g ai/ha, 0 is no effect, 13 to 15 days
In short: as §1

[4] = test system: ragweed (common ragweed, Ambrosia elatior); details: for Ragweed plant response rating (0 to 100 scale): 62 g ai/ha, 0 is no effect, 13 to 15 days
In short: as §1

[5] = test system: woolly cupgrass (Eriochloa villosa); details: for Cupgrass, Woolly plant response rating (0 to 100 scale): 62 g ai/ha, 0 is no effect, 13 to 15 days
In short: as §1

[6] = test system: yellow nutsedge (Cyperus esculentus); details: for Nutsedge, Yellow plant response rating (0 to 100 scale): 62 g ai/ha, 0 is no effect, 13 to 15 days
In short: as §1

[7] = test system: bermudagrass (Cynodon dactylon); details: for Bermudagrass plant response rating (0 to 100 scale): 62 g ai/ha, 0 is no effect, 13 to 15 days
In short: as §1

[8] = test system: Italian ryegrass (Lolium multiflorum); details: for Ryegrass, Italian plant response rating (0 to 100 scale): 62 g ai/ha, 0 is no effect, 13 to 15 days
In short: as §1

[9] = test system: giant foxtail (Setaria faberii); details: for Foxtail, Giant plant response rating (0 to 100 scale): 62 g ai/ha, 0 is no effect, 13 to 15 days
In short: as §1

[10] = test system: green foxtail (Setaria viridis); details: for Foxtail, Green plant response rating (0 to 100 scale): 62 g ai/ha, 0 is no effect, 13 to 15 days
In short: as §1

[11] = test system: downy bromegrass (Bromus tectorum); details: for Bromegrass, Downy plant response rating (0 to 100 scale): 62 g ai/ha, 0 is no effect, 13 to 15 days
In short: as §1

[12] = test system: goosegrass (Eleusine indica); details: for Goosegrass plant response rating (0 to 100 scale): 62 g ai/ha, 0 is no effect, 13 to 15 days
In short: as §1

corn (Zea mays) = details: for Corn plant response rating (0 to 100 scale): 62 g ai/ha, 0 is no effect, 13 to 15 days
In short: as §1

[13] = 31 g ai/ha, postemergence, scale 0 to 100, 0 is no effect, 100 is complete control
[14] = postemergence, 100 is complete control
[15] = Postemergence, 125 g ai/ha, visual rating after 13 to 15 days, scale 0 (no effect) to 100 (complete control)
[16] = Postemergence, 250 g ai/ha, scale 0 to 100 (0 no effect, 100 complete control)

Compound: CC(C)CC(=O)OC1=C(C(=O)c2cnc(-c3ccccc3)n(-c3ccccc3)c2=O)C(=O)CCC1 [Compound 83]
- Plant response rating, Crabgrass, Large [1, 13]: 85
- Crabgrass, Large plant response rating (0 to 100 scale) [1, 14]: 85
- Plant response rating, Crabgrass, Large [1, 15]: 95
- Plant response rating, Crabgrass, Large [1, 16]: 98
- Plant response rating, Johnsongrass [2, 13]: 95
- Johnsongrass plant response rating (0 to 100 scale) [2, 14]: 100
- Plant response rating, Johnsongrass [2, 16]: 100
- Plant response rating, Morningglory [3, 13]: 70
- Morningglory plant response rating (0 to 100 scale) [3, 14]: 75
- Plant response rating, Morningglory [3, 16]: 100
- Plant response rating, Ragweed [4, 13]: 75
- Ragweed plant response rating (0 to 100 scale) [4, 14]: 80
- Plant response rating, Ragweed [4, 16]: 98
- Plant response rating, Cupgrass, Woolly [5, 13]: 70
- Cupgrass, Woolly plant response rating (0 to 100 scale) [5, 14]: 85
- Plant response rating, Cupgrass, Woolly [5, 15]: 90
- Plant response rating, Cupgrass, Woolly [5, 16]: 95
- Plant response rating, Nutsedge, Yellow [6, 13]: 10
- Nutsedge, Yellow plant response rating (0 to 100 scale) [6, 14]: 20
- Plant response rating, Nutsedge, Yellow [6, 16]: 85
- Plant response rating, Bermudagrass [7, 13]: 75
- Bermudagrass plant response rating (0 to 100 scale) [7, 14]: 75
- Plant response rating, Bermudagrass [7, 15]: 85
- Plant response rating, Bermudagrass [7, 16]: 90
- Plant response rating, Ryegrass, Italian [8, 13]: 0
- Ryegrass, Italian plant response rating (0 to 100 scale) [8, 14]: 0
- Plant response rating, Ryegrass, Italian [8, 16]: 5
- Plant response rating, Foxtail, Giant [9, 13]: 80
- Foxtail, Giant plant response rating (0 to 100 scale) [9, 14]: 95
- Plant response rating, Foxtail, Giant [9, 16]: 98
- Plant response rating, Foxtail, Green [10, 13]: 90
- Foxtail, Green plant response rating (0 to 100 scale) [10, 14]: 95
- Plant response rating, Foxtail, Green [10, 16]: 98
- Plant response rating, Bromegrass, Downy [11, 13]: 40
- Bromegrass, Downy plant response rating (0 to 100 scale) [11, 14]: 45
- Plant response rating, Bromegrass, Downy [11, 15]: 45
- Plant response rating, Bromegrass, Downy [11, 16]: 60
- Plant response rating, Goosegrass [12, 13]: 75
- Goosegrass plant response rating (0 to 100 scale) [12, 14]: 80
- Plant response rating, Goosegrass [12, 16]: 95
- Plant response rating, Corn (corn (Zea mays); [13]): 0
- Corn plant response rating (0 to 100 scale) (corn (Zea mays); [14]): 5
- Plant response rating, Corn (corn (Zea mays); [15]): 15
- Plant response rating, Corn (corn (Zea mays); [16]): 25

Compound: CCCCCn1c(-c2ccccc2)ncc(C(=O)C2=C(O)CCCC2=O)c1=O [Compound 89]
- Plant response rating, Crabgrass, Large [1, 13]: 85
- Crabgrass, Large plant response rating (0 to 100 scale) [1, 14]: 95
- Plant response rating, Crabgrass, Large [1, 15]: 95
- Plant response rating, Crabgrass, Large [1, 16]: 98
- Plant response rating, Johnsongrass [2, 13]: 25
- Johnsongrass plant response rating (0 to 100 scale) [2, 14]: 90
- Plant response rating, Johnsongrass [2, 16]: 100
- Plant response rating, Morningglory [3, 13]: 70
- Morningglory plant response rating (0 to 100 scale) [3, 14]: 85
- Plant response rating, Morningglory [3, 16]: 100
- Plant response rating, Ragweed [4, 13]: 70
- Ragweed plant response rating (0 to 100 scale) [4, 14]: 85
- Plant response rating, Ragweed [4, 16]: 100
- Plant response rating, Cupgrass, Woolly [5, 13]: 35
- Cupgrass, Woolly plant response rating (0 to 100 scale) [5, 14]: 50
- Plant response rating, Cupgrass, Woolly [5, 15]: 65
- Plant response rating, Cupgrass, Woolly [5, 16]: 75
- Plant response rating, Nutsedge, Yellow [6, 13]: 35
- Nutsedge, Yellow plant response rating (0 to 100 scale) [6, 14]: 55
- Plant response rating, Nutsedge, Yellow [6, 16]: 75
- Plant response rating, Bermudagrass [7, 13]: 75
- Bermudagrass plant response rating (0 to 100 scale) [7, 14]: 85
- Plant response rating, Bermudagrass [7, 15]: 95
- Plant response rating, Bermudagrass [7, 16]: 95
- Plant response rating, Ryegrass, Italian [8, 13]: 0
- Ryegrass, Italian plant response rating (0 to 100 scale) [8, 14]: 5
- Plant response rating, Ryegrass, Italian [8, 16]: 30
- Plant response rating, Foxtail, Giant [9, 13]: 70
- Foxtail, Giant plant response rating (0 to 100 scale) [9, 14]: 85
- Plant response rating, Foxtail, Giant [9, 16]: 98
- Plant response rating, Foxtail, Green [10, 13]: 60
- Foxtail, Green plant response rating (0 to 100 scale) [10, 14]: 70
- Plant response rating, Foxtail, Green [10, 16]: 80
- Plant response rating, Bromegrass, Downy [11, 13]: 0
- Bromegrass, Downy plant response rating (0 to 100 scale) [11, 14]: 0
- Plant response rating, Bromegrass, Downy [11, 15]: 5
- Plant response rating, Bromegrass, Downy [11, 16]: 5
- Plant response rating, Goosegrass [12, 13]: 55
- Goosegrass plant response rating (0 to 100 scale) [12, 14]: 65
- Plant response rating, Goosegrass [12, 16]: 80
- Plant response rating, Corn (corn (Zea mays); [13]): 80
- Corn plant response rating (0 to 100 scale) (corn (Zea mays); [14]): 95
- Plant response rating, Corn (corn (Zea mays); [15]): 98
- Plant response rating, Corn (corn (Zea mays); [16]): 98

From patent publication US8952024B2, “Herbicidal pyrimidone derivatives” (E I du Pont de Nemours and Company, priority 2009, dated 2015)
